Measurements from patent US6737383B1, “Herbicidal oxadiazolidines” (priority 1999, dated 2004).

Columns and labels:
[1] = test system: wheat; assay: Test B pre/postemergence wheat; type: in vivo, Triticum aestivum
Summary of the method: (§1)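 Response is a visual 0-to-10 score relative to untreated plants, where 0 means no effect and 10 means complete control, taken twelve to sixteen days after application. Treatments went onto soil at planting and onto foliage of 1- to 4-leaf plants, using a surfactant-containing non-phytotoxic solvent.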

[2] = test system: rape; assay: Test B pre/postemergence rape; type: in vivo, Brassica napus
Summary of the method: as §1

[3] = test system: velvetleaf; assay: Test B pre/postemergence velvetleaf; type: in vivo, Abutilon theophrasti
Summary of the method: as §1

[4] = test system: bamyardgrass; assay: Test B flood test barnyardgrass; type: in vivo, Echinochloa crus-galli
Summary of the method: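 Plants were grown to the 2-leaf stage before treatment with test chemical, then held in a greenhouse for twelve to sixteen days. Injury was visually rated against untreated controls on a 0–10 scale, where 0 is no effect and 10 is complete control.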

[5] = Postemergence, Rate 250 g/ha, scale 0 to 10
[6] = Postemergence, Rate 500 g/ha, scale of 0 to 10 where 0 is no effect and 10 is complete control
[7] = Preemergence, Rate 62 g/ha, scale 0 to 10 (0 no effect, 10 complete control)
[8] = Preemergence, Rate 125 g/ha, scale of 0 to 10 where 0 is no effect and 10 is complete control
[9] = Preemergence, Rate 250 g/ha, scale 0 to 10, 0 is no effect, 10 is complete control
[10] = Preemergence, Rate 500 g/ha, scale 0 to 10, 0 is no effect, 10 is complete control
[11] = Rate 125 g/ha, Postemergence, scale 0 to 10, 0 is no effect, 10 is complete control
[12] = Postemergence block (flood test species), Rate 250 g/ha, scale 0 to 10
[13] = Postemergence section (flood test species), Rate 500 g/ha, scale of 0 to 10 where 0 is no effect and 10 is complete control
[14] = Rate 125 g/ha, Postemergence section (flood test species), scale 0 to 10, 0 is no effect, 10 is complete control
[15] = Preemergence, Rate 62 g/ha, scale of 0 to 10 where 0 is no effect and 10 is complete control
[16] = Rate 62 g/ha, Postemergence, scale 0 to 10 (0 no effect, 10 complete control)

SMILES | Wheat plant response rating [1, 5] | Wheat plant response rating [1, 6] | Plant response rating, Wheat [1, 8] | Wheat plant response rating [1, 9] | Wheat plant response rating [1, 10] | Wheat plant response rating [1, 11] | Rape plant response rating [2, 5] | Rape plant response rating [2, 6] | Plant response rating, Rape [2, 8] | Rape plant response rating [2, 9] | Rape plant response rating [2, 10] | Rape plant response rating [2, 11] | Velvetleaf plant response rating [3, 5] | Velvetleaf plant response rating [3, 6] | Plant response rating, Velvetleaf [3, 8] | Velvetleaf plant response rating [3, 9] | Velvetleaf plant response rating [3, 10] | Velvetleaf plant response rating [3, 11] | Barnyardgrass plant response rating [4, 12] | Barnyardgrass plant response rating [4, 13] | also measured
CC(C)N(C(=O)n1oc(=O)n(CC#N)c1=O)c1ccccc1 [Compound 434] | 0 | 0 | 0 | 0 | 0 | 0 | 0 | 0 | 0 | 0 | 0 | 0 | 0 | 0 | 0 | 0 | 0 | 0 | 0 | 0 | Plant response rating, Wheat [1, 7]: 0; Plant response rating, Rape [2, 7]: 0; Plant response rating, Velvetleaf [3, 7]: 0; Barnyardgrass plant response rating ([4]; Rate 62 g/ha, Postemergence (flood test species), scale of 0 to 10 where 0 is no effect and 10 is complete control): 0; Barnyardgrass plant response rating [4, 14]: 0
CC(C)N(C(=O)n1oc(=O)n(CC(=O)N(C)C)c1=O)c1ccc(F)cc1F [Compound 440] | 0 | 4 | 0 | 5 | 7 | 0 | 0 | 0 | 0 | 3 | 3 | 0 | 0 | 2 | 0 | 0 | 7 | 0 | 0 | 0 | Plant response rating, Wheat [1, 15]: 0; Wheat plant response rating [1, 16]: 0; Plant response rating, Rape [2, 15]: 0; Rape plant response rating [2, 16]: 0; Plant response rating, Velvetleaf [3, 15]: 0; Velvetleaf plant response rating [3, 16]: 0; Barnyardgrass plant response rating ([4]; Rate 62 g/ha, Postemergence (flood test), scale 0 to 10, 0 no effect, 10 complete control): 0; Barnyardgrass plant response rating [4, 14]: 0
COC(C)n1c(=O)on(C(=O)N(c2ccccc2)C(C)C)c1=O (stereo not drawn) [Compound 441] | 0 | 0 | 0 | 0 | 0 | 0 | 0 | 0 | 0 | 0 | 0 | 0 | 0 | 0 | 0 | 0 | 0 | 0 | – | – | Plant response rating, Wheat [1, 15]: 0; Wheat plant response rating [1, 16]: 0; Plant response rating, Rape [2, 15]: 0; Rape plant response rating [2, 16]: 0; Plant response rating, Velvetleaf [3, 15]: 0; Velvetleaf plant response rating [3, 16]: 0; Plant response rating, Barnyardgrass (0 to 10 scale, 0 is no effect, 10 is complete control) ([4]; Rate 62 g/ha, flood test species, Pre-emergence, visual evaluation after twelve to sixteen days): 0; Barnyardgrass plant response rating (0 to 10 scale, 0 is no effect, 10 is complete control) ([4]; Rate 125 g/ha, under heading Pre-emergence, flood test species, visual evaluation after twelve to sixteen days): 0; Barnyardgrass plant response rating ([4]; Rate 250 g/ha, Pre-emergence (flood test species), scale 0 to 10, 0 is no effect, 10 is complete control): 0; Barnyardgrass plant response rating ([4]; Rate 500 g/ha, Pre-emergence, flood test species, scale 0 to 10 (0 no effect, 10 complete control)): 0
